# Reference: patent US11911393B2, “Non-catalytic substrate-selective p38alpha-specific MAPK inhibitors with endothelial-stabilizing and anti-inflammatory activity, and methods of use thereof” (University of Maryland, Baltimore, priority 2016, dated 2024)
# Tests used:
# [1] = system: IL-8-directed neutrophil TEM through HMVECLs; assay: Neutrophil transendothelial migration (TEM) assay; type: cell-based, human; settings: 10 μM, HMVECLs preincubated at 39.5° C. for 6 h
# p38β = molecular target: T1, p38β (Homo sapiens, UniProt Q15759); assay: DSF, binding to p38β; settings: DSF melting temperature, concentration series
# T1 construct: HA (N); made in house; host or cells: E. coli BL21
# T1 sequence (Q15759 whole entry): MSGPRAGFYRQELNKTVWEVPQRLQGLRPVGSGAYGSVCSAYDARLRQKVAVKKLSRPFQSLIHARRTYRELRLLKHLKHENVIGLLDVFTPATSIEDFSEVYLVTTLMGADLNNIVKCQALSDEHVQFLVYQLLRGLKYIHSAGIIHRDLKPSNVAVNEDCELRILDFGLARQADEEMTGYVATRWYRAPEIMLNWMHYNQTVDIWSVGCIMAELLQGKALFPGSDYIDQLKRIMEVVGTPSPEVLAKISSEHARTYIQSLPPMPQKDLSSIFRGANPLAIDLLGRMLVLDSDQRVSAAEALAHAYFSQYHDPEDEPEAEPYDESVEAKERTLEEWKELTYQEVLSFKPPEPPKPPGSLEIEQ
smiles,measurement,setting,value
"C[S+]([O-])c1ccc(-c2nc(-c3ccncc3)c(-c3ccc(F)cc3)[nH]2)cc1 (centres unmarked) [SB203580, reference compound]",reduction of hyperthermia-augmented neutrophil TEM,[1],84%
same,"stabilization of p38β in DSF (binding), in words",p38β,stabilized both p38α and p38β
